The values that follow come from patent publication US9125835B2, “Synergistic combinations to reduce particle dose for targeted treatment of cancer and its metastases” (priority 2010, dated 2015).

The subject of one data set is caspase 3/7. Conditions: A549 cells, 24 hours; 1 μM paclitaxel alone or with 1 mM R-ALA.
In another data set the test system is A549 cell. As to the kind of experiment: Anti-cancer efficacy in orthotopic rat lung cancer model (A549 cell inoculation). The data set is classed as in vivo, nude rats. Conditions: IV every 3 days for 27 days; free CPT 2 mg/kg, CPT-Nva-MPs 0.2 mg/kg CPT. On the procedure:
(§1) This was determined by preparing PEGylated 6 μm polystyrene MPs with three copies of the norvaline (Nva) α-amino acid prodrug of CPT. […] Anti-cancer efficacy was evaluated in an orthotopic rat lung cancer model and compared to a bolus injection of CPT.
The treatment was conducted every 3 days for 27 days. The day after the last treatment, all animals were euthanized, and organs (lung, heart, […], spleen and […]) were dissected and weighed. The organs were fixed in 10% neutral buffered formalin for H & E staining.

Data set [1] is described as follows: In vivo CPT plasma concentrations after single IV injection. The settings on record: IV injection of free CPT (2 mg/kg). The protocol:
Values are reported as mean ±SD.
as §1

Description for caspase 3/7: Cell viability (FIG. 11—left) and caspase 3/7 activation (apoptosis) (FIG. 11—right) of A549 cells were evaluated in response to a low dose (˜EC5-EC20) of paclitaxel alone (1 μM), low dose paclitaxel +R-ALA (1 mM) or a solvent control (0.1% DMSO). Cell viability was determined with AlamarBlue® assay. Caspase 3/7 activation was determined as a measure of apoptosis using a fluorometric assay kit (Biovision, Mountain View, Calif.). A549 cells were treated with solvent control (0.1% DMSO), 1 μM paclitaxel, and 1 μM paclitaxel+1 mM R-ALA for 24 hours.

`CC(=O)O[C@H]1C(=O)[C@@]2(C)[C@H]([C@H](OC(=O)c3ccccc3)[C@]3(O)C[C@H](OC(=O)[C@H](O)[C@@H](NC(=O)c4ccccc4)c4ccccc4)C(C)=C1C3(C)C)[C@]1(OC(C)=O)CO[C@@H]1C[C@@H]2O` [paclitaxel]: the “caspase 3/7 activation relative to controls” value with caspase 3/7 was 1.5 fold.

For `CC[C@@]1(O)C(=O)OCc2c1cc1n(c2=O)Cc2cc3ccccc3nc2-1` [free CPT, camptothecin], the “areas of lung cancer versus untreated animals” value in the data set with A549 cell is on record as “smaller areas of lung cancer”. Besides, the “systemic exposure (CPT plasma)” value in data set [1] was “high but short-lived systemic exposures”.
